# What was measured:
# bedstraw = test: Test B pre/postemergence bedstraw; assay type: in vivo, Galium aparine
# Method in brief: (§1)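 Response is a visual 0-to-10 score relative to untreated plants, where 0 means no effect and 10 means complete control, taken twelve to sixteen days after application. Treatments went onto soil at planting and onto foliage of 1- to 4-leaf plants, using a surfactant-containing non-phytotoxic solvent.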
# surinam grass = test: Test B pre/postemergence surinam grass; assay type: in vivo, Brachiaria decumbens
# Method in brief: as §1
# cocklebur = test: Test B pre/postemergence cocklebur; assay type: in vivo, Xanthium strumarium
# Method in brief: as §1
# corn = test: Test B pre/postemergence corn; assay type: in vivo, Zea mays
# Method in brief: as §1
# giant foxtail = test: Test B pre/postemergence giant foxtail; assay type: in vivo, Setaria faberii
# Method in brief: as §1
# pigweed = test: Test B pre/postemergence pigweed; assay type: in vivo, Amaranthus retroflexus
# Method in brief: as §1
# rape = test: Test B pre/postemergence rape; assay type: in vivo, Brassica napus
# Method in brief: as §1
# soybean = test: Test B pre/postemergence soybean; assay type: in vivo, Glycine max
# Method in brief: as §1
# sugar beet = test: Test B pre/postemergence sugar beet; assay type: in vivo, Beta vulgaris
# Method in brief: as §1
# velvetleaf = test: Test B pre/postemergence velvetleaf; assay type: in vivo, Abutilon theophrasti
# Method in brief: as §1
# wheat = test: Test B pre/postemergence wheat; assay type: in vivo, Triticum aestivum
# Method in brief: as §1
# wild oat = test: Test B pre/postemergence wild oat; assay type: in vivo, Avena fatua
# Method in brief: as §1
# purple nutsedge = test: Test B pre/postemergence purple nutsedge; assay type: in vivo, Cyperus rotundus
# Method in brief: as §1
# rice = test: Test B flood test rice; assay type: in vivo, Oryza sativa; details: Pre-emergence
# Method in brief: (§2)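 Read-out is a visual response score from 0 (no effect) to 10 (complete control), assigned by comparison with untreated controls. Treatment was applied at the 2-leaf stage, and plants stayed in the greenhouse for twelve to sixteen days before scoring.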
# smallflower flatsedge = test: Test B flood test smallflower flatsedge; assay type: in vivo, Cyperus difformis; details: Pre-emergence
# Method in brief: as §2
# duck salad = test: Test B flood test duck salad; assay type: in vivo, Heteranthera limosa; details: Pre-emergence
# Method in brief: as §2
# [1] = Postemergence, Rate 125 g/ha, scale 0 to 10, 0 is no effect, 10 is complete control
# [2] = Preemergence, Rate 62 g/ha, scale of 0 to 10 where 0 is no effect and 10 is complete control
# [3] = Preemergence, Rate 250 g/ha, scale of 0 to 10 where 0 is no effect and 10 is complete control
# [4] = Rate 62 g/ha, Postemergence, scale 0 to 10, 0 no effect, 10 complete control
# [5] = Rate 250 g/ha, Postemergence, scale of 0 to 10 where 0 is no effect and 10 is complete control
# [6] = Preemergence, Rate 500 g/ha, scale of 0 to 10 where 0 is no effect and 10 is complete control
# [7] = Rate 500 g/ha, Postemergence, scale 0 to 10, 0 no effect, 10 complete control
# [8] = Rate 1000 g/ha, scale 0 to 10 (0 no effect, 10 complete control)
# [9] = Rate 125 g/ha, flood test species, scale 0 to 10 where 0 is no effect and 10 is complete control
# [10] = Rate 250 g/ha, flood-test species, scale 0 to 10, 0 is no effect, 10 is complete control
# [11] = Rate 500 g/ha, flood test species, scale 0 to 10 (0 no effect, 10 complete control)
compound,measurement,setting,value
CC(C)N(C(=O)n1oc(=O)n(-c2ccc3ccccc3c2)c1=O)c1ccccc1 [Compound 332],"Plant response rating, Bedstraw",bedstraw; [1],0
same,Bedstraw plant response rating,bedstraw; [2],0
same,Bedstraw plant response rating (0 to 10 scale),"bedstraw; Preemergence, Rate 125 g/ha",0
same,Bedstraw plant response rating,bedstraw; [3],0
same,Bedstraw plant response rating,bedstraw; [4],0
same,"Plant response rating, Bedstraw",bedstraw; [5],0
same,"Plant response rating, B. signalgrass",surinam grass; [1],0
same,B. signalgrass plant response rating,surinam grass; [2],0
same,"B. signalgrass plant response rating (0 to 10 scale, 0 is no effect, 10 is complete control)","surinam grass; Preemergence, Rate 125 g/ha",0
same,B. signalgrass plant response rating,surinam grass; [3],0
same,B. signalgrass plant response rating,surinam grass; [6],0
same,B. signalgrass plant response rating,surinam grass; [4],0
same,"Plant response rating, B. signalgrass",surinam grass; [5],0
same,"Plant response rating, B. signalgrass",surinam grass; [7],0
same,"Plant response rating, Cocklebur",cocklebur; [1],0
same,Cocklebur plant response rating,cocklebur; [2],0
same,Cocklebur plant response rating (0 to 10 scale),"cocklebur; Preemergence, Rate 125 g/ha",0
same,Cocklebur plant response rating,cocklebur; [3],0
same,Cocklebur plant response rating,cocklebur; [6],0
same,Cocklebur plant response rating,cocklebur; [4],0
same,"Plant response rating, Cocklebur",cocklebur; [7],0
same,"Plant response rating, Corn",corn; [1],0
same,Corn plant response rating,corn; [2],0
same,Corn plant response rating (0 to 10 scale),"corn; Preemergence, Rate 125 g/ha",0
same,Corn plant response rating,corn; [3],0
same,Corn plant response rating,corn; [6],0
same,Corn plant response rating,corn; [4],0
same,"Plant response rating, Corn",corn; [7],0
same,"Plant response rating, Giant foxtail",giant foxtail; [1],0
same,Giant foxtail plant response rating,giant foxtail; [2],0
same,Giant foxtail plant response rating (0 to 10 scale),"giant foxtail; Preemergence, Rate 125 g/ha",1
same,Giant foxtail plant response rating,giant foxtail; [3],4
same,Giant foxtail plant response rating,giant foxtail; [6],7
same,Giant foxtail plant response rating,giant foxtail; [4],0
same,"Plant response rating, Giant foxtail",giant foxtail; [7],0
same,"Plant response rating, Redroot pigweed",pigweed; [1],1
same,Redroot pigweed plant response rating,pigweed; [2],0
same,Redroot pigweed plant response rating (0 to 10 scale),"pigweed; Preemergence, Rate 125 g/ha",0
same,Redroot pigweed plant response rating,pigweed; [3],0
same,Redroot pigweed plant response rating,pigweed; [6],3
same,Redroot pigweed plant response rating,pigweed; [4],0
same,"Plant response rating, Redroot pigweed",pigweed; [7],4
same,"Plant response rating, Rape",rape; [1],0
same,Rape plant response rating,rape; [2],0
same,Rape plant response rating (0 to 10 scale),"rape; Preemergence, Rate 125 g/ha",0
same,Rape plant response rating,rape; [3],0
same,Rape plant response rating,rape; [6],0
same,Rape plant response rating,rape; [4],0
same,"Plant response rating, Rape",rape; [7],0
same,"Plant response rating, Soybean",soybean; [1],2
same,Soybean plant response rating,soybean; [2],0
same,Soybean plant response rating (0 to 10 scale),"soybean; Preemergence, Rate 125 g/ha",0
same,Soybean plant response rating,soybean; [3],0
same,Soybean plant response rating,soybean; [6],0
same,Soybean plant response rating,soybean; [4],2
same,"Plant response rating, Soybean",soybean; [7],3
same,"Plant response rating, Sugarbeets",sugar beet; [1],0
same,Sugarbeets plant response rating,sugar beet; [2],0
same,Sugarbeets plant response rating (0 to 10 scale),"sugar beet; Preemergence, Rate 125 g/ha",0
same,Sugarbeets plant response rating,sugar beet; [3],0
same,Sugarbeets plant response rating,sugar beet; [6],0
same,Sugarbeets plant response rating,sugar beet; [4],0
same,"Plant response rating, Sugarbeets",sugar beet; [7],0
same,"Plant response rating, Velvetleaf",velvetleaf; [1],0
same,Velvetleaf plant response rating,velvetleaf; [2],0
same,Velvetleaf plant response rating (0 to 10 scale),"velvetleaf; Preemergence, Rate 125 g/ha",0
same,Velvetleaf plant response rating,velvetleaf; [3],0
same,Velvetleaf plant response rating,velvetleaf; [6],0
same,Velvetleaf plant response rating,velvetleaf; [4],0
same,"Plant response rating, Velvetleaf",velvetleaf; [7],0
same,"Plant response rating, Wheat",wheat; [1],0
same,Wheat plant response rating,wheat; [2],0
same,Wheat plant response rating (0 to 10 scale),"wheat; Preemergence, Rate 125 g/ha",0
same,Wheat plant response rating,wheat; [3],0
same,Wheat plant response rating,wheat; [6],0
same,Wheat plant response rating,wheat; [4],0
same,"Plant response rating, Wheat",wheat; [7],0
same,"Plant response rating, Wild oats",wild oat; [1],0
same,Wild oats plant response rating,wild oat; [2],0
same,Wild oats plant response rating (0 to 10 scale),"wild oat; Preemergence, Rate 125 g/ha",0
same,Wild oats plant response rating,wild oat; [3],0
same,Wild oats plant response rating,wild oat; [6],0
same,Wild oats plant response rating,wild oat; [4],0
same,"Plant response rating, Wild oats",wild oat; [7],0
same,"Plant response rating, Nutsedge",purple nutsedge; [1],0
same,Nutsedge plant response rating,purple nutsedge; [2],0
same,Nutsedge plant response rating (0 to 10 scale),"purple nutsedge; Preemergence, Rate 125 g/ha",0
same,Nutsedge plant response rating,purple nutsedge; [3],0
same,Nutsedge plant response rating,purple nutsedge; [6],0
same,Nutsedge plant response rating,purple nutsedge; [4],0
same,"Plant response rating, Nutsedge",purple nutsedge; [7],0
same,Rice plant response rating,rice; [8],0
same,Rice plant response rating,rice; [9],0
same,Rice plant response rating,rice; [10],0
same,Rice plant response rating,rice; [11],0
same,S. Flatsedge plant response rating,smallflower flatsedge; [8],0
same,S. Flatsedge plant response rating,smallflower flatsedge; [9],0
same,S. Flatsedge plant response rating,smallflower flatsedge; [10],0
same,S. Flatsedge plant response rating,smallflower flatsedge; [11],0
same,Ducksalad plant response rating,duck salad; [8],0
same,Ducksalad plant response rating,duck salad; [9],0
same,Ducksalad plant response rating,duck salad; [10],0
same,Ducksalad plant response rating,duck salad; [11],0
